Reference: article PMC11492252 (Heliyon, 2024)

Columns and labels:
[1] = system: Escherichia coli (E. coli); assay: Antimicrobial MIC, broth microdilution; assay type: cell-based
[2] = system: Candida albicans (C. albicans); assay: Antifungal MIC, broth microdilution; assay type: cell-based

Row | SMILES | MIC [1] [µg/mL] | MIC [2] [µg/mL]
1 | CC(=O)OCC1=C(C(=O)O)N2C(=O)[C@@H](NC(=O)Cc3cccs3)[C@H]2SC1 [Cephalothin] | < 32 | –
2 | C[C@@H]1C[C@@H]([C@H](O)CC2CC(=O)NC(=O)C2)C(=O)[C@@H](C)C1 [Cycloheximide] | – | < 201
